Holding throughout (type): in vivo
Experiment [1] relates to broad leaf weeds (Lindernia pyxidaria and Monochoria vaginalis). Nature of the experiment: Test Example 1: herbicidal effect test by treatment of rice paddy soil (immediately after seeding). The note with it: 120 g/10a active ingredient, dry weight vs untreated area, 14 days after treatment. In outline: (§1)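 Values are herbicidal rates (%) derived from average plant dry weight in treated versus untreated pots 14 days after treatment, run in duplicate. Treatment was a water-diluted emulsion dropped into flooded paddy soil right after sowing, at 120 g active ingredient per 10 ares.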

For experiment [2], the system named is Scirpus juncoides. Described as above. The note with it: 120 g/10a active ingredient, dry weight vs untreated area, 14 days after treatment. In outline:
as §1

Experiment [3] relates to Echinochloa crus-galli. Described as above. The settings on record: 120 g/10a active ingredient, dry weight vs untreated area, 14 days after treatment. A digest of the protocol: as §1
In experiment [4] the test system is Amaranthus viridis. In words: Test Example 4: herbicidal effect test by treatment of leave and stem in dry field farming (seven days after seeding). The note with it: 120 g/10a active ingredient; emulsion sprayed seven days after seeding; evaluated 14 days after treatment. In outline:
(§2)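 Twenty seeds per species were mixed into the top 1 cm of alluvial soil in 36 cm^2 pots; emulsions were sprayed seven days after seeding at 100 L per 10 ares (120 g active ingredient per 10 ares). Herbicidal rate (%) = {1 − treated/untreated mean dry weight} × 100, 14 days after treatment, duplicate.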

Experiment [5] concerns Chenopodium album. Described as above. The note with it: 120 g/10a active ingredient; emulsion sprayed seven days after seeding; evaluated 14 days after treatment. In outline:
as §2

Experiment [6] deals with southern crabgrass. Described as above. The note with it: 120 g/10a active ingredient; emulsion sprayed seven days after seeding; evaluated 14 days after treatment. A digest of the protocol:
as §2

The test system of experiment [7] is Echinochloa crus-galli. The description is as above. The settings on record: 120 g/10a active ingredient; emulsion sprayed seven days after seeding; evaluated 14 days after treatment. A digest of the protocol: as §2
The subject of experiment [8] is broad leaf weeds (Lindernia pyxidaria and Monochoria vaginalis). Nature of the experiment: Test Example 2: herbicidal effect test by treatment during growing period in paddy rice cultivation (seven days after seeding). The settings on record: 120 g/10a active ingredient, assessed 14 days after treatment, dry weight vs untreated area. In outline:
(§3)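 Seeds sown 0–1 cm deep in puddled, fertilised paddy soil with about 3 cm standing water in a glass greenhouse. Diluted emulsion dropped into the water seven days after seeding at 120 g active ingredient per 10 ares. Herbicidal rate (%) from mean dry weight vs untreated, duplicate, 14 days after treatment.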

The subject of experiment [9] is Scirpus juncoides. The description is as above. The settings on record: 120 g/10a active ingredient, assessed 14 days after treatment, dry weight vs untreated area. A digest of the protocol: as §3
In experiment [10] the test system is Echinochloa crus-galli. Described as above. The settings on record: 120 g/10a active ingredient, assessed 14 days after treatment, dry weight vs untreated area. In outline:
as §3

The test system of experiment [11] is Amaranthus viridis. In words: Test Example 3: herbicidal effect test by treatment of dry field farming soil (one day after seeding). The settings on record: 120 g/10a active ingredient, evaluated 14 days after treatment. In outline:
(§4)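 Alluvial dry-field soil in pots, top 1 cm mixed with 20 seeds per weed species. One day after seeding, the water-diluted emulsion was sprayed onto the soil surface at 100 L per 10 ares (120 g active ingredient per 10 ares). Duplicate pots; herbicidal rate (%) from plant dry weight versus untreated, 14 days after treatment.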

The subject of experiment [12] is Chenopodium album. The description is as above. The settings on record: 120 g/10a active ingredient, evaluated 14 days after treatment. In outline: as §4
The test system of experiment [13] is southern crabgrass. Described as above. The settings on record: 120 g/10a active ingredient, evaluated 14 days after treatment. A digest of the protocol: as §4
Experiment [14] has as its system Echinochloa crus-galli. Described as above. The settings on record: 120 g/10a active ingredient, evaluated 14 days after treatment. A digest of the protocol:
as §4

Molecules are shown by their SMILES.

Regarding `COC(=O)N(c1ccccc1Cc1c(C)n(C(C)C)oc1=O)S(=O)(=O)C(F)(F)F` [Compound 1-575], the “Herbicidal rate (%) Lindernia pyxidaria” value in [1] and in experiment [8] was 100% throughout. The “Herbicidal rate (%) Monochoria vaginalis” value in [1] and in [8] was 100% in each case. The “Herbicidal rate (%) Scirpus juncoides” value in experiment [2] and in experiment [9] was 100% throughout. The “Herbicidal rate (%) Echinochloa crus-galli” value in experiment [3] and in experiment [10] was 90% throughout. The “herbicidal effect (herbicidal rate), Amaranthus viridis” value (“herbicidal effect … Amaranthus viridis” for short) in experiment [4] was 30%. For the same compound, the “herbicidal effect (herbicidal rate), Chenopodium album” value (shortened to “herbicidal effect … Chenopodium album”) in [5] is 90%. The “herbicidal effect (herbicidal rate), southern crabgrass” value (shortened to “herbicidal effect … southern crabgrass”) in experiment [6] was 90%. Further, the “herbicidal effect (herbicidal rate), Echinochloa crus-galli” value in experiment [7] is recorded as 90%. The “herbicidal rate, Amaranthus viridis” value in experiment [11] is on record as 40%. In addition, the “herbicidal rate, Chenopodium album” value in [12] was 40%. The “herbicidal rate, southern crabgrass” value in experiment [13] came out at 90%. Besides, the “herbicidal rate, Echinochloa crus-galli” value in experiment [14] amounted to 90%.

As for `COC(=O)N(c1ccccc1Cc1c(C)n(C(C)(C)C)oc1=O)S(=O)(=O)C(F)(F)F` [Compound 1-576], the “Herbicidal rate (%) Lindernia pyxidaria” value in [1] and in experiment [8] was 90% each time. For the same compound, the “Herbicidal rate (%) Monochoria vaginalis” value in experiment [1] and in experiment [8] was 90% each time. Also, the “Herbicidal rate (%) Scirpus juncoides” value in experiment [2] and in experiment [9] was 90% each time. Also, the “Herbicidal rate (%) Echinochloa crus-galli” value in [3] and in experiment [10] was 90% throughout. In experiment [4], the “herbicidal effect … Amaranthus viridis” value is 40%. In [5], the “herbicidal effect … Chenopodium album” value was 40%. For the same compound, in experiment [6], the “herbicidal effect … southern crabgrass” value is 90%. Besides, the “herbicidal effect (herbicidal rate), Echinochloa crus-galli” value in experiment [7] is 90%. Besides, the “herbicidal rate, Amaranthus viridis” value in experiment [11] was found to be 90%. In addition, in experiment [12], the “herbicidal rate, Chenopodium album” value stood at 90%. The “herbicidal rate, southern crabgrass” value in [13] came to 90%. The “herbicidal rate, Echinochloa crus-galli” value in experiment [14] is listed as 90%.

Take `COC(=O)N(c1ccccc1Cc1c(C)n(CC(C)C)oc1=O)S(=O)(=O)C(F)(F)F` [Compound 1-580]: the “Herbicidal rate (%) Lindernia pyxidaria” value in experiment [1] and in experiment [8] was 90% throughout. Besides, the “Herbicidal rate (%) Monochoria vaginalis” value in experiment [1] and in experiment [8] was 90% each time. Moreover, the “Herbicidal rate (%) Scirpus juncoides” value in experiment [2] and in experiment [9] was 90% each time. The “Herbicidal rate (%) Echinochloa crus-galli” value in experiment [3] and in experiment [10] was 90% in each case. In addition, in [4], the “herbicidal effect … Amaranthus viridis” value is 40%. Besides, the “herbicidal effect … Chenopodium album” value in experiment [5] was found to be 40%. In addition, the “herbicidal effect … southern crabgrass” value in [6] is listed as 90%. For the same compound, the “herbicidal effect (herbicidal rate), Echinochloa crus-galli” value in experiment [7] is 90%. Besides, the “herbicidal rate, Amaranthus viridis” value in experiment [11] was 90%. Also, the “herbicidal rate, Chenopodium album” value in [12] worked out at 90%. The “herbicidal rate, southern crabgrass” value in [13] worked out at 90%. Further, the “herbicidal rate, Echinochloa crus-galli” value in [14] stood at 90%.

As to `CCC(C)Cn1oc(=O)c(Cc2ccccc2N(C(=O)OC)S(=O)(=O)C(F)(F)F)c1C` (centres unmarked) [Compound 1-583], the “Herbicidal rate (%) Lindernia pyxidaria” value in experiment [1] is on record as 90%; in experiment [8], 80%. The “Herbicidal rate (%) Monochoria vaginalis” value in [1] and in experiment [8] was 90% each time. In addition, the “Herbicidal rate (%) Scirpus juncoides” value in experiment [2] and in experiment [9] was 90% throughout. The “Herbicidal rate (%) Echinochloa crus-galli” value in experiment [3] and in [10] was 100% in each case. The “herbicidal effect … Amaranthus viridis” value in [4] was determined as 50%. In experiment [5], the “herbicidal effect … Chenopodium album” value amounted to 50%. Also, the “herbicidal effect … southern crabgrass” value in experiment [6] is given as 60%. In addition, in experiment [7], the “herbicidal effect (herbicidal rate), Echinochloa crus-galli” value amounted to 80%. Also, in [11], the “herbicidal rate, Amaranthus viridis” value stood at 60%. For the same compound, the “herbicidal rate, Chenopodium album” value in experiment [12] came to 50%. In addition, the “herbicidal rate, southern crabgrass” value in [13] amounted to 90%. Moreover, the “herbicidal rate, Echinochloa crus-galli” value in [14] worked out at 100%.

With `COCC(C)n1oc(=O)c(Cc2ccccc2N(C(=O)OC)S(=O)(=O)C(F)(F)F)c1C` (centres unmarked) [Compound 1-587], the “Herbicidal rate (%) Lindernia pyxidaria” value in experiment [1] and in [8] was 90% each time. The “Herbicidal rate (%) Monochoria vaginalis” value in experiment [1] and in [8] was 90% each time. Further, the “Herbicidal rate (%) Scirpus juncoides” value in experiment [2] and in experiment [9] was 90% in each case. For the same compound, the “Herbicidal rate (%) Echinochloa crus-galli” value in experiment [3] and in experiment [10] was 90% each time. Moreover, the “herbicidal effect … Amaranthus viridis” value in [4] was determined as 40%. The “herbicidal effect … Chenopodium album” value in experiment [5] worked out at 40%. The “herbicidal effect … southern crabgrass” value in [6] is 90%. The “herbicidal effect (herbicidal rate), Echinochloa crus-galli” value in experiment [7] is given as 90%. For the same compound, the “herbicidal rate, Amaranthus viridis” value in experiment [11] stood at 90%. Further, in [12], the “herbicidal rate, Chenopodium album” value stood at 90%. In addition, in experiment [13], the “herbicidal rate, southern crabgrass” value was 90%. Further, in [14], the “herbicidal rate, Echinochloa crus-galli” value worked out at 90%.

Turning to `COC(=O)N(c1ccccc1Cc1c(C)n(CCSC)oc1=O)S(=O)(=O)C(F)(F)F` [Compound 1-592], the “Herbicidal rate (%) Lindernia pyxidaria” value in [1] and in experiment [8] was 90% throughout. Besides, the “Herbicidal rate (%) Monochoria vaginalis” value in experiment [1] and in experiment [8] was 90% each time. Further, the “Herbicidal rate (%) Scirpus juncoides” value in [2] and in experiment [9] was 90% each time. In addition, the “Herbicidal rate (%) Echinochloa crus-galli” value in [3] and in experiment [10] was 90% each time. Further, the “herbicidal effect … Amaranthus viridis” value in [4] was 40%. Moreover, the “herbicidal effect … Chenopodium album” value in experiment [5] was determined as 40%. Also, the “herbicidal effect … southern crabgrass” value in experiment [6] is recorded as 90%. The “herbicidal effect (herbicidal rate), Echinochloa crus-galli” value in [7] came to 90%. Also, in experiment [11], the “herbicidal rate, Amaranthus viridis” value is on record as 90%. Further, the “herbicidal rate, Chenopodium album” value in experiment [12] was 90%. For the same compound, the “herbicidal rate, southern crabgrass” value in [13] came out at 90%. Further, in [14], the “herbicidal rate, Echinochloa crus-galli” value is 90%.

In the case of `COC(=O)N(c1ccccc1Cc1c(C)n(Cc2ccc(F)cc2)oc1=O)S(=O)(=O)C(F)(F)F` [Compound 1-597], the “Herbicidal rate (%) Lindernia pyxidaria” value in experiment [1] is listed as 90%; in [8], 80%. Moreover, the “Herbicidal rate (%) Monochoria vaginalis” value in [1] and in experiment [8] was 100% each time. Besides, the “Herbicidal rate (%) Scirpus juncoides” value in experiment [2] and in experiment [9] was 90% throughout. Further, the “Herbicidal rate (%) Echinochloa crus-galli” value in experiment [3] and in experiment [10] was 90% throughout. The “herbicidal effect … Amaranthus viridis” value in experiment [4] came to 40%. Moreover, the “herbicidal effect … Chenopodium album” value in experiment [5] is 40%. The “herbicidal effect … southern crabgrass” value in [6] was 50%. Moreover, in [7], the “herbicidal effect (herbicidal rate), Echinochloa crus-galli” value is recorded as 40%. Besides, in [11], the “herbicidal rate, Amaranthus viridis” value is given as 0%. Further, the “herbicidal rate, Chenopodium album” value in experiment [12] stood at 0%. The “herbicidal rate, southern crabgrass” value in experiment [13] came out at 90%. Besides, the “herbicidal rate, Echinochloa crus-galli” value in experiment [14] is reported as 90%.

`COC(=O)N(c1ccccc1Cc1c(C)n(C(C)c2ccccc2)oc1=O)S(=O)(=O)C(F)(F)F` (centres unmarked) [Compound 1-598]: the “Herbicidal rate (%) Lindernia pyxidaria” value in experiment [1] and in experiment [8] was 90% each time. In addition, the “Herbicidal rate (%) Monochoria vaginalis” value in [1] and in experiment [8] was 90% each time. Moreover, the “Herbicidal rate (%) Scirpus juncoides” value in experiment [2] and in experiment [9] was 90% throughout. The “Herbicidal rate (%) Echinochloa crus-galli” value in [3] and in [10] was 90% each time. Further, in experiment [4], the “herbicidal effect … Amaranthus viridis” value is 40%. Besides, in experiment [5], the “herbicidal effect … Chenopodium album” value is reported as 40%. In addition, in experiment [6], the “herbicidal effect … southern crabgrass” value worked out at 90%. Further, in experiment [7], the “herbicidal effect (herbicidal rate), Echinochloa crus-galli” value is on record as 90%. In addition, in experiment [11], the “herbicidal rate, Amaranthus viridis” value stood at 90%. The “herbicidal rate, Chenopodium album” value in experiment [12] is on record as 90%. Besides, in [13], the “herbicidal rate, southern crabgrass” value stood at 90%. Moreover, the “herbicidal rate, Echinochloa crus-galli” value in [14] was 90%.

Source of the values: US11109593B2, “Isoxazolin-5-one derivative and herbicide containing same as active ingredient” (HOKKO CHEMICAL INDUSTRY CO., LTD., priority 2017, dated 2021).
